Data set [1] is described as follows: acute toxicity in mice (i.v.). Particulars: mouse, in vivo, iv.
The subject of a further data set is Pr. vulgaris, 08601. The data set can be described thus: antibacterial activity (in vitro), Minimum Inhibitory Concentration. Type of data set: cell-based. Particulars: Proteus vulgaris, 10^6 /ml of bacteria were seeded, syn isomers. An excerpt:
(§1) The antibacterial activity (in vitro) of the preferred compounds of this invention are shown in the following Table 1 in comparison with known compounds having a structure similar to that of the compounds of this invention. All compounds of Table 1 are syn isomers.
(§2) Minimum Inhibitory Concentration (MIC, mcg/ml) (10^6 /ml of bacteria

The next data set concerns S. aureus, 209p. Described as above. Type of data set: cell-based. Particulars: Staphylococcus aureus, 10^6 /ml of bacteria were seeded, syn isomers.
From the text: as §1, §2

For the next data set, the system named is Ser. marcescens, 10104. Described as above. Particulars: Serratia marcescens, 10^6 /ml of bacteria were seeded, syn isomers. Type of data set: cell-based.
From the text: as §1, §2

A further data set relates to Ps. aeruginosa, 32121. The data set is described as above. Type of data set: cell-based. The conditions noted are these: Pseudomonas aeruginosa, 10^6 /ml of bacteria were seeded, syn isomers.
From the text: as §1, §2

Another data set relates to Ps. aeruginosa, 32104. The description is as above. The conditions noted are these: Pseudomonas aeruginosa, 10^6 /ml of bacteria were seeded, syn isomers. Type of data set: cell-based.
From the text: as §1, §2

The subject of the next data set is E. coli, NIHJ. The description is as above. Type of data set: cell-based. The conditions noted are these: Escherichia coli, 10^6 /ml of bacteria were seeded, syn isomers.
From the text: as §1, §2

Experimental findings from patent publication US4603198A, “Cephalosporin derivatives” (Daiichi Seiyaku Co., Ltd., priority 1982, dated 1986) are described below.

≈ marks a conversion by molar mass, not a printed value. Counter-ions that a name gives are not always drawn.

`Nc1nc(/C(=N/OCc2c[nH]cn2)C(=O)N[C@@H]2C(=O)N3C(C(=O)[O-])=C(C[n+]4ccccc4)CS[C@H]23)cs1` [IA, 7β-(2-(2-aminothiazol-4-yl)-2-((imidazol-4-yl)methoxyimino)acetamido)-3-(1-pyridinio)methyl-3-cephem-4-carboxylate trihydrochloride]: the LD50 in data set [1] was > 2500 mg/kg. The MIC is 0.1 µg/mL in the data set on Pr. vulgaris, 08601; 0.2 µg/mL with S. aureus, 209p; 0.1 µg/mL against Ser. marcescens, 10104; 1.56 µg/mL in the data set on Ps. aeruginosa, 32121; 1.56 µg/mL with Ps. aeruginosa, 32104; 0.1 µg/mL in the data set on E. coli, NIHJ.

Turning to `NC(=O)c1cc[n+](CC2=C(C(=O)[O-])N3C(=O)[C@@H](NC(=O)/C(=N\OCc4c[nH]cn4)c4csc(N)n4)[C@H]3SC2)cc1` [IB, 7β-(2-(2-aminothiazol-4-yl)-2-((imidazol-4-yl)methoxyimino)acetamido)-3-(4-carbamoyl-1-pyridinio)methyl-3-cephem-4-carboxylate trihydrochloride], the minimal inhibitory concentration (MIC) is 0.2 µg/mL in the data set with Pr. vulgaris, 08601; 1.56 µg/mL against S. aureus, 209p; 0.2 µg/mL against Ser. marcescens, 10104; 12.5 µg/mL against Ps. aeruginosa, 32121; 1.56 µg/mL with Ps. aeruginosa, 32104; < 0.1 µg/mL in the data set on E. coli, NIHJ.

Take `Nc1nc(/C(=N/OCc2cc[nH]n2)C(=O)N[C@@H]2C(=O)N3C(C(=O)[O-])=C(C[n+]4ccccc4)CS[C@H]23)cs1` [IC, 7β-(2-(2-aminothiazol-4-yl)-2-((pyrazol-3-yl)methoxyimino)acetamido)-3-(1-pyridinio)methyl-3-cephem-4-carboxylate]: the LD50 in data set [1] is > 2000 mg/kg. For the same molecule, the MIC against Pr. vulgaris, 08601 is 0.1 µg/mL (≈ 0.185 µM); in the data set with S. aureus, 209p, 0.39 µg/mL (≈ 0.721 µM); with Ser. marcescens, 10104, 0.2 µg/mL (≈ 0.37 µM); against Ps. aeruginosa, 32121, 3.13 µg/mL (≈ 5.79 µM); in the data set on Ps. aeruginosa, 32104, 1.56 µg/mL (≈ 2.89 µM); in the data set on E. coli, NIHJ it was < 0.1 µg/mL.

`Cn1nnnc1SCC1=C(C(=O)O)N2C(=O)[C@@H](NC(=O)/C(=N\OCc3c[nH]cn3)c3csc(N)n3)[C@H]2SC1` [ID, 7β-(2-(2-aminothiazol-4-yl)-2-((imidazol-4-yl)methoxyimino)acetamido)-3-(1-methyl-1H-tetrazol-5-yl)thiomethyl-3-cephem-4-carboxylic acid dihydrochloride]: the minimum inhibitory concentration (MIC) against Pr. vulgaris, 08601 is < 0.1 µg/mL; in the data set on S. aureus, 209p, 0.78 µg/mL; in the data set on Ser. marcescens, 10104 it was 0.39 µg/mL; with Ps. aeruginosa, 32121, 3.13 µg/mL; against Ps. aeruginosa, 32104 it was 12.5 µg/mL; in the data set on E. coli, NIHJ it was < 0.1 µg/mL.

As for `Nc1nc(/C(=N/OCc2cn[nH]c2)C(=O)N[C@@H]2C(=O)N3C(C(=O)[O-])=C(C[n+]4ccccc4)CS[C@H]23)cs1` [IE, 7β-(2-(2-aminothiazol-4-yl)-2-((pyrazol-4-yl)methoxyimino)acetamido)-3-(1-pyridinio)methyl-3-cephem-4-carboxylate], the minimum inhibitory concentration (MIC) in the data set with Pr. vulgaris, 08601 was 0.1 µg/mL (≈ 0.185 µM); with S. aureus, 209p, 0.2 µg/mL (≈ 0.37 µM); against Ser. marcescens, 10104, 0.2 µg/mL (≈ 0.37 µM); against Ps. aeruginosa, 32121, 3.13 µg/mL (≈ 5.79 µM); with Ps. aeruginosa, 32104 it was 6.25 µg/mL (≈ 11.6 µM); against E. coli, NIHJ it was < 0.1 µg/mL.

As to `Cc1[nH]cnc1CO/N=C(\C(=O)N[C@@H]1C(=O)N2C(C(=O)[O-])=C(C[n+]3ccccc3)CS[C@H]12)c1csc(N)n1` [IF, 7β-(2-(2-aminothiazol-4-yl)-2-((5-methylimidazol-4-yl)methoxyimino)acetamido)-3-(1-pyridino)methyl-3-cephem-4-carboxylate trihydrochloride], the minimal inhibitory concentration (MIC) in the data set on Pr. vulgaris, 08601 was 0.1 µg/mL; against S. aureus, 209p it was 0.78 µg/mL; against Ser. marcescens, 10104, 0.2 µg/mL; in the data set with Ps. aeruginosa, 32121 it was 3.13 µg/mL; in the data set on Ps. aeruginosa, 32104 it was 3.13 µg/mL; in the data set with E. coli, NIHJ, < 0.1 µg/mL.

For `Cc1cc[n+](CC2=C(C(=O)[O-])N3C(=O)[C@@H](NC(=O)/C(=N\OCc4c[nH]cn4)c4csc(N)n4)[C@H]3SC2)cc1` [IG, 7β-(2-(2-aminothiazol-4-yl)-2-((imidazol-4-yl)methoxyimino)acetamido)-3-(4-methyl-1-pyridinio)methyl-3-cephem-4-carboxylate trihydrochloride], the MIC was 0.2 µg/mL in the data set with Pr. vulgaris, 08601; 1.56 µg/mL in the data set with S. aureus, 209p; 0.1 µg/mL in the data set on Ser. marcescens, 10104; 3.13 µg/mL in the data set with Ps. aeruginosa, 32121; 3.13 µg/mL against Ps. aeruginosa, 32104; < 0.1 µg/mL in the data set on E. coli, NIHJ.

As for `CC(=O)OCC1=C(C(=O)O)N2C(=O)[C@@H](NC(=O)/C(=N\OCc3c[nH]cn3)c3csc(N)n3)[C@H]2SC1` [IH, 7β-(2-(2-aminothiazol-4-yl)-2-((imidazol-4-yl)methoxyimino)acetamido)-3-acetoxymethyl-3-cephem-4-carboxylic acid dihydrochloride], the MIC against Pr. vulgaris, 08601 is < 0.1 µg/mL; in the data set with S. aureus, 209p, 0.78 µg/mL; against Ser. marcescens, 10104 it was 0.78 µg/mL; against Ps. aeruginosa, 32121, 6.25 µg/mL; in the data set with Ps. aeruginosa, 32104, 12.5 µg/mL; against E. coli, NIHJ it was < 0.1 µg/mL.

As to `CO/N=C(\C(=O)N[C@@H]1C(=O)N2C(C(=O)O)=C(COC(C)=O)CS[C@H]12)c1csc(N)n1` [a, Cephotaxim, reference compound], the MIC was < 0.1 µg/mL in the data set on Pr. vulgaris, 08601; 3.13 µg/mL (≈ 6.87 µM) against S. aureus, 209p; 0.39 µg/mL (≈ 0.856 µM) with Ser. marcescens, 10104; 12.5 µg/mL (≈ 27.4 µM) against Ps. aeruginosa, 32121; 25 µg/mL (≈ 54.9 µM) in the data set with Ps. aeruginosa, 32104; < 0.1 µg/mL in the data set on E. coli, NIHJ.

With `Nc1nc(/C(=N/OCc2nnn[nH]2)C(=O)N[C@@H]2C(=O)N3C(C(=O)[O-])=C(C[n+]4ccccc4)CS[C@H]23)cs1` [b, 7β-(2-(2-aminothiazol-4-yl)-2-((1H-tetrazol-5-yl)methoxyimino)acetamido)-3-pyridiniomethyl-3-cephem-4-carboxylate, reference compound], the MIC against Pr. vulgaris, 08601 was 0.1 µg/mL (≈ 0.184 µM); against S. aureus, 209p it was 3.13 µg/mL (≈ 5.77 µM); in the data set with Ser. marcescens, 10104, 0.39 µg/mL (≈ 0.719 µM); with Ps. aeruginosa, 32121, 50 µg/mL (≈ 92.2 µM); in the data set with Ps. aeruginosa, 32104 it was 12.5 µg/mL (≈ 23 µM); in the data set on E. coli, NIHJ, 0.1 µg/mL (≈ 0.184 µM).

Regarding `Nc1nc(/C(=N/OCc2ncc[nH]2)C(=O)N[C@@H]2C(=O)N3C(C(=O)[O-])=C(C[n+]4ccccc4)CS[C@H]23)cs1` [c, 7β-(2-(2-aminothiazol-4-yl)-2-((imidazol-2-yl)methoxyimino)acetamido)-3-pyridiniomethyl-3-cephem-4-carboxylate, reference compound], the MIC against Pr. vulgaris, 08601 amounted to 0.39 µg/mL (≈ 0.721 µM); in the data set with S. aureus, 209p, 1.56 µg/mL (≈ 2.89 µM); in the data set on Ser. marcescens, 10104 it was 0.2 µg/mL (≈ 0.37 µM); against Ps. aeruginosa, 32121, 25 µg/mL (≈ 46.2 µM); with Ps. aeruginosa, 32104, 6.25 µg/mL (≈ 11.6 µM); against E. coli, NIHJ it was 0.2 µg/mL (≈ 0.37 µM).
